These results are taken from paper PMC9486951, “Tetramate Derivatives by Chemoselective Dieckmann Ring Closure of threo-Phenylserines and Their Antibacterial Activity” (The Journal of Organic Chemistry, 2022).

One experiment relates to CaCo cell line. The experiment can be described thus: Cytotoxicity assay (Alamar blue), CaCo. Type of experiment: cell-based. The conditions noted are these: Homo sapiens; read-out: cell lines EC50, CaCo. Here is the method:
(§1) The selectivity of these compounds for activity against prokaryotic cells over mammalian cells was analyzed by considering their cytotoxicity against Hela, heK-293, CaCo, and MDCK […] cell lines, allowing estimation of the therapeutic ratio [EC50Hela cell line/MIC(S. aureus)] (Table 3). […]
(§2) Screening of compounds were performed by Oxford Antibiotic Group, Austria. […]
(§3) For cytotoxicity testing, the synthesized compounds were tested against four different cell lines: HeLa, HEK 293, MDCK and CaCo. The cells were seeded in a 96 well plate and incubated until a confluence of 80% was achieved (under physiological conditions - 37°C, 5% CO2 and 95% humidity). The samples were tested by serial dilution in triplicates with starting concentration of 250 µg/mL. After 24 and 48 hours the survival of cells was evaluated by microscope and measured with Alamar blue. IC50 values were obtained from the calibration curves. […]

Another experiment relates to MDCK cell line. The experiment can be described thus: Cytotoxicity assay (Alamar blue), MDCK. Type of experiment: cell-based. Conditions: read-out: cell lines EC50, MDCK. Here is the method: as §1, §2, §3
In general terms: Alamar Blue is a resazurin reagent that responds to reducing activity.

Experiment [1] deals with MRSA. The experiment is described as follows: Broth dilution MIC against MRSA with added metal cations. Type of experiment: cell-based. Conditions: Staphylococcus aureus, addition of Fe, Ca, Mg and Zn at concentration as found in blood. Here is the method: (§4) As tetramic acids are well-known metal chelators,[1],[20] of interest was to investigate whether this loss of activity was due to metal chelation or plasma protein binding (PPB), specifically with human serum albumin (HSA).[17],[18] To answer this question, bicyclic tetramate 12a was tested against MRSA using a broth dilution assay, under standard conditions and with the addition of similar metal cations (Fe, Ca, Mg, and Zn) with concentration as that found in blood, respectively. […] Bicyclic tetramate 12a was also tested against MRSA using a broth dilution assay, under standard conditions but in the presence of one-third the serum albumin concentration as that found in human blood. […] A review has shown that PPB strongly correlates with increased hydrophobicity, and this might point to a problem with the tetramate class, which clearly depends upon hydrophobicity for their antibacterial activity, as noted above.[21]

Experiment [2] relates to MRSA. The experiment can be described thus: Broth dilution MIC against MRSA in the presence of serum albumin. In kind it is cell-based. The conditions noted are these: Staphylococcus aureus, one-third the serum albumin concentration found in human blood. Here is the method: as §4
In general terms: Dilution methods test growth across graded concentrations, often in twofold steps.

In experiment [3] the test system is methicillin-resistant Staphylococcus aureus (MRSA). The experiment is described as follows: MIC determination by broth dilution assay against MRSA. Type of experiment: cell-based. The method, then: With access to these derivatives routinely available, an assessment of their antibacterial activity was made by measuring minimum inhibitory concentration (MIC) values (Table S6) against two example organisms, methicillin-resistant Staphylococcus aureus (MRSA) and E. coli. […] By contrast, a more polar substituent at the C7-position (pyran 12t) compromised the antibacterial activity (125 μg/mL). […] Compound 13b had the same activity as 12g at 1.00 μg/mL. Overall, increasing lipophilicity corresponded to higher potency against MRSA. […]
Screening of compounds were performed by Oxford Antibiotic Group, Austria. For MIC determination by broth dilution assay, the samples were tested in a primary 96 well plates screening assay, in duplicate. The compounds were diluted in Mueller Hinton Broth (MHB) for bacterial screening to a stock solution of 1000 µg/mL, serial diluted and overlaid with a microbe solution in a concentration of 10^4 CFU/ml. […]

Another experiment has as its system Hela cell line. The experiment is described as follows: Cytotoxicity assay (Alamar blue), Hela. Type of experiment: cell-based, human. The method, then: as §1
Screening of compounds were performed by Oxford Antibiotic Group, Austria. For MIC determination by broth dilution assay, the samples were tested in a primary 96 well plates screening assay, in duplicate. The compounds were diluted in Mueller Hinton Broth (MHB) for bacterial screening to a stock solution of 1000 µg/mL, serial diluted and overlaid with a microbe solution in a concentration of 10^4 CFU/ml. The plates were incubated for […]
as §3

The next experiment concerns heK-293 cell line. The experiment can be described thus: Cytotoxicity assay (Alamar blue), heK-293. The conditions noted are these: Homo sapiens, HEK293; read-out: cell lines EC50, heK-293. In kind it is cell-based. The method, then:
as §1, §2, §3

Read-outs that look alike come from different tables or passages of the source.

For orientation: EC50 means the concentration giving half of the maximal effect. As usually defined, the MIC is the lowest concentration that inhibits growth of the organism. On to `CC(C)(C)[C@@H]1O[C@H](c2ccccc2)[C@H]2C(O)=C(C(=O)NC34CC5CC(CC(C5)C3)C4)C(=O)N21` (mixture of isomers) [12a], for which the EC50 was found to be 15.6 µg/mL with CaCo cell line; 7.8 µg/mL in the experiment with MDCK cell line; 7.8 µg/mL in the experiment with Hela cell line (Homo sapiens, HeLa, read-out: cell lines EC50, Hela); 31.3 µg/mL with heK-293 cell line. Further, the MIC with MRSA [1] was 0.24 µg/mL; with MRSA [2] it was 7.81 µg/mL; in experiment [3] (Staphylococcus aureus, MRSA, Table 3, read-out: MIC(S. aureus)) it was 0.3 µg/mL; in experiment [3] (Staphylococcus aureus, MRSA, Table S5, against S. aureus, read-out: MIC) it was 0.25 µg/mL; in experiment [3] (Staphylococcus aureus, MRSA, broth dilution assay, standard conditions (control of metal cation experiment), read-out: MIC against MRSA, standard conditions) it was 0.49 µg/mL; in experiment [3] (Staphylococcus aureus, MRSA, broth dilution, read-out: MIC against MRSA), 0.25 µg/mL. This compound registered an MIC in experiment [3] (Table S6) of 0.25 µg/mL. Moreover, in the experiment on Hela cell line (EC50 Hela cell line/MIC(S. aureus)), the “therapeutic ratio / selectivity for bacteria over the Hela cell line” value is given as 26 fold.
